Values joined by “and” are separate entries in the source; they are usually repeats but may differ in a detail not shown here. Equal values may be shown once.
Legend:
normal human plasma = assay: APTT clotting assay, normal human plasma; type: biochemical; details: normal human plasma (text)
Procedure: For the PT assay, thromboplastin-D was reconstituted according to the manufacturer’s directions and warmed to 37 °C. […] After incubation for 4 min at 37 °C, clotting was initiated by adding 100 μL of prewarmed 25 mM CaCl2 and the time to clotting was noted. […] To determine the in vitro effect on the APTT of deficient human plasmas, the APTT assay was repeated, using human plasmas deficient of factor VII (FVII), factor IX (FIX), FXI, or factor XII (FXII). […] The positive control used in APTT and PT assays was rivaroxaban, a clinically used FXa inhibitor. Under the conditions reported, rivaroxaban doubled the APTT and PT at concentrations of 0.123 ± 0.003 µM and 0.193 ± 0.043 µM, respectively.

human plasmin = human plasmin (Homo sapiens, UniProt P00747); assay: In vitro plasmin-mediated clot lysis (fibrinolysis) assay; type: biochemical; details: rate of clot lysis over 5–100 min, pH 7.4, 25 °C
Chain of human plasmin (P00747 581-810 limits assumed): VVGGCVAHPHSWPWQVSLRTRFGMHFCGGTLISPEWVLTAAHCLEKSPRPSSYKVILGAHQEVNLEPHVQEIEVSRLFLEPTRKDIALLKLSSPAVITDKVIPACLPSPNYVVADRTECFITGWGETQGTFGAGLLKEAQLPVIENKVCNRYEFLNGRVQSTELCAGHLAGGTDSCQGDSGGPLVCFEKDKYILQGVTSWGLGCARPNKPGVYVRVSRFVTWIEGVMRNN
Chain of human plasmin (P00747 97-580 partner limits assumed): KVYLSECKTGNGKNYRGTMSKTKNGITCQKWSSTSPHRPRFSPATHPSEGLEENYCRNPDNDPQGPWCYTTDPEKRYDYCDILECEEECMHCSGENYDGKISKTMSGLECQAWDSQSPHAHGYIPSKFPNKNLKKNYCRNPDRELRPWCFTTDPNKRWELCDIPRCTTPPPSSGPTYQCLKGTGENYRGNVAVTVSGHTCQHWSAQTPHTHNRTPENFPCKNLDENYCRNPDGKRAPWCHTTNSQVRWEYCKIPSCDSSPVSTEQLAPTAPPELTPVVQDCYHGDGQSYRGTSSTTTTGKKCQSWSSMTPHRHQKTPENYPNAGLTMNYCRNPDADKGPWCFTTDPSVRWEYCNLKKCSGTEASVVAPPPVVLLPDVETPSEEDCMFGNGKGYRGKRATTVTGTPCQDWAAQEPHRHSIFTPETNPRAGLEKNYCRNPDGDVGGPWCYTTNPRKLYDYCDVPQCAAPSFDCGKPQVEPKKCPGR
Procedure: The method followed here was similar to that reported earlier. This in vitro experiment was conducted in 96-well platform in pH 7.4 buffer at 25 °C. The clot was generated by the addition of 80 µL of a solution of human thrombin (2.5 µg/mL) in 20 mM TrisHCl buffer containing 10 mM CaCl2 to 60 µL of a solution of fibrinogen (10 mg/mL) and FXIIIa (2 µg/mL) in 20 mM TrisHCl buffer containing 10 mM CaCl2. The resulting clot was stabilized for 15 min at 25 °C. The absorbance was then measured at 405 nm and was ~0.98 across all wells. […] Finally, 5 µL of human plasmin (stock of 1.6 µM) in 20 mM TrisHCl buffer of pH 7.4 containing 2.5 mM CaCl2 and 100 mM NaCl was added to each well and the A405 of each well was recorded over more than 340 min at various time intervals. […] (1) Y=Y0+YM−Y0/1+10^(log[I]0−logIC50)(HS)

human FXa = human FXa (Homo sapiens, UniProt P00742); assay: FXa chromogenic substrate hydrolysis assay; type: biochemical; details: pH 7.4, 37 °C
Chain of human FXa (P00742 235-488 limits assumed): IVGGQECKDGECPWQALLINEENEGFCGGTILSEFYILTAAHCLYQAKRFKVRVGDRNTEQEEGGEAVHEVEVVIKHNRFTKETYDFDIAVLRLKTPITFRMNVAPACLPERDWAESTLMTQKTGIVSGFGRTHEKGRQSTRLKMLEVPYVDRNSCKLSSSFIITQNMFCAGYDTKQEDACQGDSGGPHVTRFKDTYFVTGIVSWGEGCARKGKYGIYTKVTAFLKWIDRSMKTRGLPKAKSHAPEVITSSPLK
Chain of human FXa (P00742 41-179 partner limits assumed): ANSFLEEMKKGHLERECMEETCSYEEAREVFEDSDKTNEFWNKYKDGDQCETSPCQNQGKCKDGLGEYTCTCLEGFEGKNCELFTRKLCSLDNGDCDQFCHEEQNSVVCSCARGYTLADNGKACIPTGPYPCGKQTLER
Procedure: Direct inhibition of human FXa and α-thrombin of the common coagulation pathway and human plasmin of the fibrinolysis pathway were measured using the corresponding chromogenic substrate hydrolysis assays at 37 °C and pH 7.4, as reported earlier using the 96-microplate platform. […] After 10 min incubation, 5 µL Spectrozyme FXa (5 mM stock conc.) was rapidly added and the residual activity of FXa was measured from the initial rate of increase in absorbance at 405 nm. […] The concentration vs effect curve was constructed using logistic Equation (1) from which the potency (IC50) and efficacy (ΔY) of inhibition were also obtained.

FXIa = molecular target: T1, FXIa (Homo sapiens, UniProt P03951); assay: FXIa chromogenic substrate hydrolysis assay; type: biochemical
T1 construct: purchased Haematologic Technologies, Inc; host or cells: plasma
T1 sequence (P03951 388-625 limits assumed): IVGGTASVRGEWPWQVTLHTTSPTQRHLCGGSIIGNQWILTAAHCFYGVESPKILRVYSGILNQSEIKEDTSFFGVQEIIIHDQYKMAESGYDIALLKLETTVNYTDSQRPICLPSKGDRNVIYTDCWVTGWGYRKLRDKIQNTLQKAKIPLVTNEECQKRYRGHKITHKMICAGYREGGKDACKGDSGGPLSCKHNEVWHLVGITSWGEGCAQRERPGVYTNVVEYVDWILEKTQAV
T1 sequence (P03951 19-387 partner limits assumed): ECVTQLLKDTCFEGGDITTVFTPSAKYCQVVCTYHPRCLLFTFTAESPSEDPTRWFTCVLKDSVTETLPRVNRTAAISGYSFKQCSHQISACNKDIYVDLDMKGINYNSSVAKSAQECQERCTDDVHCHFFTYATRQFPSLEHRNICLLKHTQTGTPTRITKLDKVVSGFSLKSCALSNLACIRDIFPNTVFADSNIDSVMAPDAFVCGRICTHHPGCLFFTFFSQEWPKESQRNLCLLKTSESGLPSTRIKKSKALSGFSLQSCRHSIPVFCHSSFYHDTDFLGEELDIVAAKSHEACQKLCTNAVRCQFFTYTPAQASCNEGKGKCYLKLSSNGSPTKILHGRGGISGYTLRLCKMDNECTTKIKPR
Procedure: (§1) Direct inhibition of the human coagulation transglutaminase FXIIIa was also studied using a fluorescence-based transglutamination assay as reported in the literature.
(§2) After 10 min incubation, 5 µL FXIa substrate (6.9 mM stock concentration) was rapidly added and the residual FXIa activity was measured from the initial rate of increase in absorbance at 405 nm. Assays were performed in similar fashion with trypsin and chymotrypsin. Stock concentrations used were 18.9 µg/mL (trypsin) and 22.7 mM (S-2222) for bovine trypsin assay (final volume was 200 µL) and 2 µg/mL (chymotrypsin) and 16.2 mM (N-Succinyl-Ala-Ala-Pro-Phe-p-nitroanilide) for bovine chymotrypsin assay (final volume was 200 µL). The buffer used for FXIa, trypsin, chymotrypsin assays was 50 mM Tris-HCl buffer, pH 7.4, containing 150 mM NaCl, 2.5 mM CaCl2, 0.1% PEG8000, and 0.02% Tween80. Neutrophil elastase inhibition assay was performed in a 96-well plate with a final volume of 100 µl with 0.125 M 4-(2-hydroxyethyl)-1-piperazineethanesulfonic acid (HEPES) buffer, pH 7.4 containing 0.125% Triton-X 100, as reported earlier. […] After incubation, 3 µL neutrophil elastase substrate (S-1384; 25 mM stock conc.) was rapidly added and the residual enzyme activity measured from the initial rate of increase in the absorbance at 405 nm.

bovine chymotrypsin = molecular target: T2, bovine chymotrypsin (Bos taurus, UniProt P00766); assay: Chymotrypsin chromogenic substrate hydrolysis assay; type: biochemical; details: pH 7.4
T2 construct: purchased Millipore-Sigma
Procedure: as §1, §2

[1] = tested on: platelet-aggregation induced by adenosine diphosphate, epinephrine, thrombin, and collagen; details: cited from earlier work
clotting times = details: cited from earlier work
[2] = cited from earlier work
[3] = parenteral administration, patients

N=C(N)c1ccc(OCCCCCOc2ccc(C(=N)N)cc2)cc1 [pentamidine isethionate, 4,4′-(pentane-1,5-diylbis(oxy))-dibenzimidamide]
concentration to double the APTT (normal human plasma): 27.88 ± 2.99 µM | concentration to double the APTT (normal human plasma; listed as pentamidine): lower than 50 µM | HS (Hill slope) of clot lysis inhibition (human plasmin): 1.2 ± 0.7 | efficacy (ΔY) of clot lysis inhibition (human plasmin): ~ 58% | IC50 (human plasmin; read-out: IC50 of fibrinolysis (clot lysis) inhibition): ~3.6 µM and 3.6 µM | HS (human FXa): 0.97 ± 0.07 | IC50 (human FXa): ~10 µM and 10.4 µM | ∆Y (efficacy) (human FXa): 101.6 ± 2.9% | ∆Y (efficacy) (human FXa; listed as pentamidine): ~ 100% | inhibition at 100 µM (FXIa; at 100 µM (highest concentration tested)): < 40% | IC50 (FXIa; pH 7.4): > 100 µM | IC50 (bovine chymotrypsin): > 1750 µM | concentration that completely inhibited platelet-aggregation [1]: greater than 8.4 µM | concentration that prolongs clotting times (clotting times): greater than 8.4 µM | anemia, incidence [2, 3]: 1% | leukopenia, incidence [2, 3]: 10% | thrombocytopenia, incidence [2, 3]: 3% | blood clot formation, share of treated patients ([2]; treated patients): less than 1%

From PMC6600542 (Molecules, 2019)
